US20240262815A1, “HETEROARYL DERIVATIVE, METHOD FOR PREPARING SAME, AND PHARMACEUTICAL COMPOSITION COMPRISING SAME AS ACTIVE INGREDIENT” (VORONOI INC., priority 2021, published 2024)

Assays:
SK-BR-3 cancer cells = assay: Inhibitory activity against proliferation of SK-BR-3 cancer cells (CellTiter-Glo); format: cell-based; conditions: Homo sapiens, SK-BR-3, 120 h, ErbB2-overexpressing SK-BR-3 cells, 120 hours after treatment
Summary of the method: (§1)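 GI50 derived from % growth relative to control, measured by CellTiter-Glo luminescence after 120 h compound exposure (12 concentrations, 0.2 nM-5 μM final, n=3). BT-474 grown in RPMI-1640/20% FBS, SK-BR-3 in McCOY'S 5A/10% FBS; seeding 48 h pre-treatment.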

BT-474 cancer cells = assay: Inhibitory activity against proliferation of BT-474 cancer cells (CellTiter-Glo); format: cell-based; conditions: Homo sapiens, BT-474 ErbB2-overexpressing cancer cells, 120 hours after treatment
Summary of the method: as §1

GI50 (SK-BR-3 cancer cells) [nM] | GI50 (BT-474 cancer cells) [nM] | SMILES
< 50 | < 50 | C=CC(=O)Nc1cc(Nc2cc(N3OCC[C@@H]3c3cccc(-c4cccc(F)c4)c3)ncn2)c(OC)cc1N1CCN(CCN(C)C)CC1 [Example 304, (R)-N-(2-(4-(2-(dimethylamino)-ethyl)piperazin-1-yl)-5-((6-(3-(3′-fluoro-[1,1′-biphen-yl]-3-yl)isoxazol-idin-2-yl)pyrim-idin-4-yl)amino)-4-methoxyphenyl)-acrylamide]
< 50 | < 50 | C=CC(=O)Nc1cc(Nc2cc(N3OCC[C@@H]3c3cccc(C#CC(C)(C)C)c3)ncn2)c(OC)cc1N(C)CCN(C)C [Example 305, (R)-N-(2-((2-(dimethylamino)-ethyl)(methyl)-amino)-5-((6-(3-(3-(3,3-dimethyl-but-1-yn-1-yl)-phenyl)isoxazol-idin-2-yl)pyrim-idin-4-yl)amino)-4-methoxyphenyl)-acrylamide]
< 50 | < 50 | C=CC(=O)Nc1cc(Nc2cc(N3OCC[C@@H]3c3cccc(-c4cccc(F)c4)c3)ncn2)c(OC)cc1N1C[C@H]2C[C@@H]1CN2C [Example 306, N-(5-((6-((R)-3-(3′-fluoro-[1,1′-biphenyl]-3-yl)-isoxazolidin-2-yl)-pyrimidin-4-yl)-amino)-4-meth-oxy-2-((1R,4R)-5-methyl-2,5-diaza-bicyclo[2.2.1]-heptan-2-yl)phen-yl)acrylamide]
< 50 | < 50 | C=CC(=O)Nc1cc(Nc2cc(N3OCC[C@@H]3c3cccc(-c4cccc(F)c4)c3)ncn2)c(OC)cc1N1CCN(C)[C@@H](C)C1 [Example 307, N-(2-((S)-3,4-dimethylpiperazin-1-yl)-5-((6-((R)-3-(3′-fluoro-[1,1′-biphenyl]-3-yl)-isoxazolidin-2-yl)-pyrimidin-4-yl)-amino)-4-methoxy-phenyl)acrylamide]
< 50 | < 50 | C=CC(=O)Nc1cc(Nc2cc(N3OCC[C@@H]3c3ccc(F)c(-c4cccc(F)c4)c3)ncn2)c(OC)cc1N1CCN(C)CC1 [Example 308, (R)-N-(5-((6-(3-(3′,6-difluoro-[1,1′-biphenyl]-3-yl)-isoxazolidin-2-yl)-pyrimidin-4-yl)-amino)-4-methoxy-2-(4-methylpiper-azin-1-yl)phenyl)-acrylamide]
< 50 | < 50 | C=CC(=O)Nc1cc(Nc2cc(N3OCC[C@@H]3c3cccc(C#CC(C)(C)O)c3)ncn2)c(OC)cc1N(C)CCN(C)C [Example 309, (R)-N-(2-((2-(dimethylamino)-ethyl)(methyl)-amino)-5-((6-(3-(3-(3-hydroxy-3-methylbut-1-yn-1-yl)phenyl)isoxazol-idin-2-yl)pyrim-idin-4-yl)amino)-4-methoxyphen-yl)acrylamide]
< 50 | < 50 | C=CC(=O)Nc1cc(Nc2cc(N3OCC[C@@H]3c3ccc(F)c(-c4cccc(F)c4)c3)ncn2)c(OC)cc1N(C)CCN(C)C [Example 310, (R)-N-(5-((6-(3-(3′,6-difluoro-[1,1′-biphenyl]-3-yl)-isoxazolidin-2-yl)-pyrimidin-4-yl)-amino)-2-((2-(dimethylamino)-ethyl)(methyl)-amino)-4-methoxy-phenyl)acrylamide]
50 to 500 | 50 to 500 | C=CC(=O)Nc1cc(Nc2cc(N3OCC[C@@H]3c3cccc(C#Cc4cccc(F)c4)c3)ncn2)c(OC)cc1N1CCN(C)CC1 [Example 314, (R)-N-(5-((6-(3-(3-((3-fluorophen-yl)ethynyl)phenyl)-isoxazolidin-2-yl)-pyrimidin-4-yl)-amino)-4-methoxy-2-(4-methylpiper-azin-1-yl)phenyl)-acrylamide]
500 to 5000 | 50 to 500 | C=CC(=O)Nc1cc(Nc2cc(N3OCC[C@@H]3c3cccc(C#Cc4cccc(O)c4)c3)ncn2)c(OC)cc1N1CCN(C)CC1 [Example 315, (R)-N-(5-((6-(3-(3-((3-hydroxy-phenyl)ethynyl)-phenyl)isoxazol-idin-2-yl)pyrim-idin-4-yl)amino)-4-methoxy-2-(4-methylpiperazin-1-yl)phenyl)acryl-amide]
< 50 | < 50 | C=CC(=O)Nc1cc(Nc2cc(N3OCC[C@@H]3c3cccc(-c4cccc(F)c4)c3)ncn2)c(OC)cc1N1CCC(N2CCC2)CC1 [Example 317, (R)-N-(2-(4-(azeti-din-1-yl)piperidin-1-yl)-5-((6-(3-(3′-fluoro-[1,1′-biphen-yl]-3-yl)isoxazol-idin-2-yl)pyrim-idin-4-yl)amino)-4-methoxyphen-yl)acrylamide]
50 to 500 | < 50 | C=CC(=O)Nc1cc(Nc2cc(N3OCC[C@@H]3c3cccc(-c4cccc(F)c4)c3)ncn2)c(OC)cc1N1CCN2CCCC2C1 (stereo partly drawn) [Example 318, N-(5-((6-((R)-3-(3′-fluoro-[1,1′-biphenyl]-3-yl)-isoxazolidin-2-yl)-pyrimidin-4-yl)-amino)-2-(hexa-hydropyrrolo[1,2-a]pyrazin-2(1H)-yl)-4-methoxy-phenyl)acrylamide]
< 50 | < 50 | C=CC(=O)Nc1cc(Nc2cc(N3OCC[C@@H]3c3cccc(-c4cccc(F)c4)c3)ncn2)c(OC)cc1N1CCN(C2CC2)[C@@H](C)C1 [Example 320, N-(2-((S)-4-cyclo-propyl-3-methyl-piperazin-1-yl)-5-((6-((R)-3-(3′-fluoro-[1,1′-biphen-yl]-3-yl)isoxazol-idin-2-yl)pyrim-idin-4-yl)amino)-4-methoxyphen-yl)acrylamide]
< 50 | < 50 | C=CC(=O)Nc1cc(Nc2cc(N3OCC[C@@H]3c3cccc(-c4cccc(F)c4)c3)ncn2)c(OC)cc1N1CC2(C1)CN(S(C)(=O)=O)C2 [Example 322, (R)-N-(5-((6-(3-(3′-fluoro-[1,1′-biphenyl]-3-yl)-isoxazolidin-2-yl)-pyrimidin-4-yl)-amino)-4-methoxy-2-(6-(methylsulfon-yl)-2,6-diazaspiro-[3.3]heptan-2-yl)-phenyl)acrylamide]
50 to 500 | < 50 | C=CC(=O)Nc1cc(Nc2cc(N3OCC[C@@H]3c3cccc(-c4cccc(F)c4)c3)ncn2)c(OC)cc1N1CC2(CN(C(=O)COC)C2)C1 [Example 323, (R)-N-(5-((6-(3-(3′-fluoro-[1,1′-biphenyl]-3-yl)-isoxazolidin-2-yl)-pyrimidin-4-yl)-amino)-4-methoxy-2-(6-(2-methoxy-acetyl)-2,6-diaza-spiro[3.3]heptan-2-yl)phenyl)acryl-amide]
< 50 | < 50 | C=CC(=O)Nc1cc(Nc2cc(N3OCC[C@@H]3c3cccc(-c4cccc(F)c4)c3)ncn2)c(OC)cc1N1CCC(N2CCN(S(C)(=O)=O)CC2)CC1 [Example 324, (R)-N-(5-((6-(3-(3′-fluoro-[1,1′-biphenyl]-3-yl)-isoxazolidin-2-yl)-pyrimidin-4-yl)-amino)-4-methoxy-2-(4-(4-(methyl-sulfonyl)piperazin-1-yl)piperidin-1-yl)-phenyl)acrylamide]
< 50 | < 50 | C=CC(=O)Nc1cc(Nc2cc(N3OCCC3c3cccc(OCc4ccccn4)c3)ncn2)c(OC)cc1N(C)CCN(C)C (centres unmarked) [Example compound 95, N-(2-((2-(dimethylamino)ethyl)(methyl)amino)-4-methoxy-5-((6-(3-(3-(pyridin-2-ylmethoxy)phenyl)isoxazolidin-2-yl)pyrimidin-4-yl)amino)phenyl)acrylamide]
